Data set [1] has as its system metastatic breast cancer with pathogenic germline ATM mutation. Put plainly: PLX038 and rucaparib in a patient with ATM deficient breast cancer (NCT04209595). Conditions: single-agent low-dose PLX038 after rucaparib suspension at 4 months. The format is in vivo, human. The method, then: A patient with metastatic breast cancer and germline ATM mutation was enrolled in the ongoing dose escalation phase of the trial. […] The patient was initially diagnosed with locally advanced invasive ductal carcinoma and was treated with neoadjuvant chemotherapy followed by surgery and radiation. Nine years later, they developed metastatic disease expressing estrogen and progesterone receptors, and was treated with multiple anti-endocrine therapies and chemotherapies including eribulin, abraxane, and carboplatin. […] At enrolment, they had skin lesions on the breast which were painful and pruritic and in addition had involvement of the lung and bones. […] The mutation results from a C to T substitution at nucleotide position 5908 and creates a premature translational stop signal which is expected to result in an absence or disrupted ATM protein. The variant was not present in population databases such as ExaC but has been reported in the literature in individuals with ataxia-telangiectasia and recognized as a founder mutation in the Costa Rican population.

The conditions of data set [2]: cited from earlier work; for t½: humans, PLX038 prodrug and SN-38 released from it.
The test system of data set [3] is 22Rv1 ATM KO xenografts. The experiment in a line: PLX038A, TLZ and combination in 22Rv1 ATM KO xenografts. The format is in vivo.
Data set [4] concerns MX-1 xenografts. The experiment in a line: PLX038A, TLZ and combination in MX-1 xenografts. The format is in vivo, mice. Conditions: PLX038A 15 μmol/kg, TLZ 0.4 μmol/kg/day. An excerpt:
When tumors reached 170 mm^3, mice received a single intraperitoneal dose of vehicle, a single intraperitoneal dose of PLX038A (15 μmol/kg), a daily oral dose of talazoparib (0.4 μmol/kg) or a combination of PLX038A (15 μmol/kg) and daily oral TLZ (0.4 μmol/kg) starting on either day 0 (same day as PLX038A dosing) or day 4.

We go through 3 compounds from patent US20260034120A1, “TREATING CANCER WITH LONG-ACTING TOPOISOMERASE I INHIBITOR” (priority 2022, published 2026).

With “O-[7-(tetra-polyethylene glycol ether)-carboxamido-1-cyano-2-heptyl]-N-(10′-methoxy-7′-ethyl-camptothecin)-N-[4′-(diethylcarbamoyl)phenyl)]carbamate [PLX038]”, the “duration of sustained suppression of the tumor after treatment initiation” value in data set [1] came out at 12 months. For the same compound, the t½ result in data set [2] is “about 5 days”.

Turning to `Cn1ncnc1[C@H]1c2n[nH]c(=O)c3cc(F)cc(c23)N[C@@H]1c1ccc(F)cc1` [TLZ, talazoparib], the T/C3 wk is recorded as 0.76 in data set [3] (PLX038A 1.9 μmol/kg, TLZ 0.2 μmol/kg/day); 0.69 in data set [3] (PLX038A 1.95 μmol/kg, TLZ 0.3 μmol/kg/day); 0.76 in data set [3] (PLX038A 3.75 μmol/kg, TLZ 0.2 μmol/kg/day); 0.69 in data set [3] (PLX038A 3.75 μmol/kg, TLZ 0.3 μmol/kg/day); 0.72 in data set [3] (PLX038A 7.5 μmol/kg, TLZ 0.4 μmol/kg/day); 0.21 in data set [4]. The “inhibition of tumor growth” value was “insignificantly inhibitory” in data set [3] (TLZ QD PO 0.2 μmol/kg) and “modestly inhibitory” in data set [3] (TLZ QD PO 0.4 μmol/kg).

A word on the half-life: it is the time in which the quantity being followed falls by half. For the compound `CCc1c2c(nc3ccc(O)cc13)-c1cc3c(c(=O)n1C2)COC(=O)[C@]3(O)CC` [SN-38], the half-life in data set [2] (SN-38 formed from CPT-11) is roughly 12 h. Besides, the t½ entry in data set [2] was “about 5 days”.
